Assay results: patent US20260258025A1, “INHIBITORS OF TDP-43 AND TAU AGGREGATION” (Aquinnah Pharmaceuticals, inc., priority 2023, published 2026)

Test system: TDP-43 aggregation
Assay: TDP-43 aggregation assay in SY5Y TDP-43WT cells (high content imaging)
Assay type: cell-based
Conditions: Homo sapiens, tetracycline induction 24 hrs, 1 hour compound pre-treatment, sodium arsenite 23 hrs, 8-point dose curve, percentage of cells with TDP-43 aggregates, read-out: IC50, Inhibition of TDP-43 Aggregation
Procedure: Exemplary compounds disclosed herein were evaluated for efficacy in inhibiting TDP-43 inclusions cellular imaging-based assays.
The cellular model was in human neuroblastoma SH SYSY cells (ATCC, cat #: CRL-2266). The parent cell line was first engineered to stably express a tetracycline repressor protein (designated as TREx-SY5Y cells, customer cell line development by ThermoFisher). Wild-type human TDP-43 with a C-terminus eGFP tag was synthesized and cloned into pcDNA5/TO expression vector (ThermoFisher). The plasmid was transfected into TREx-SY5Y cells using Lipofectamine 2000 and hygromycin resistant colonies were selected. Expression of TDP-43WT::eGFP was examined under fluorescent microscopy and Western blot upon tetracycline induction. The clone that was used for TDP-43 aggregation assay is referred to as SY5Y TDP-43WT cells hereafter.
Compound inhibition of TDP-43 aggregation was tested in an 8-point dose curve in 96-well format. Briefly, TDP-43WT::eGFP expression was induced with […] for 24 hrs (SY5Y TDP-43WT cells). The cells were then pre-treated for 1 hour with exemplary compounds before adding sodium arsenite to a final concentration of […] and incubated for another 23 hrs. At the end of the treatment the cell monolayers were washed in PBS and fixed in 4% paraformaldehyde (PFA), diluted from 16% stock (Electron Microscopy Sciences cat: #15710-S). The inhibitory effect on TDP-43 aggregation was measured using CellInsight CX7 high content imager (ThermoFisher). The percentage of cells with TDP-43 aggregates was calculated based on the total number of cells identified by DAPI staining. An 8-point dose response curve was generated, and the IC50 for each compound tested was determined (Table 3).
In Table 3 below, A indicates an IC50 (nM)<500 nM, B indicates an IC50 (nM) 500 nM to <1000 nM, C indicates an IC50 (nM) 1000 nM to <2000 nM, D indicates an IC50 (nM) 2000 nM to <6000 nM, and E indicates an IC50 (nM) 6000 nM to ≤10000 nM.

`Cc1cc(-c2ccc(C(C)(C)N(C)C)cc2)sc1C(=O)N1CC[C@H](N)C1` [Compound 190, (S)-(3-aminopyrrolidin-1-yl)(5-(4-(2-(dimethylamino)propan-2-yl)phenyl)-3-methylthiophen-2-yl)methanone] and `Cc1ccc(-c2cc(C)c(C(=O)N3CC[C@H](N)C3)s2)cc1` [Compound 225] cannot be ordered by IC50: less than 500 nM for the first, less than 500 nM for the second.

First: Cc1cc(-c2ccc3c(c2)CCN(C)C3)sc1C(=O)N1CC[C@H](N)C1 [Compound 191, (S)-(3-aminopyrrolidin-1-yl)(3-methyl-5-(2-methyl-1,2,3,4-tetrahydroisoquinolin-6-yl)thiophen-2-yl)methanone]
Second: Cc1cc(-c2ccc3c(c2)CCCC3)sc1C(=O)N1CC[C@H](N)C1 [Compound 247]
The IC50 of the first is lower: less than 500 nM for the first, 6000 to 10000 nM for the second.

First: Cc1cc(-c2ccc(C3(N(C)C)CCCCC3)cc2)sc1C(=O)N1CC[C@H](N)C1 [Compound 192, (S)-(3-aminopyrrolidin-1-yl){5-[4-(1-dimethylaminocyclohexyl)phenyl]-3-methylthiophen-2-yl}methanone]
Second: Cc1cc(-c2ccc(C3(N(C)C)CCCC3)cc2)sc1C(=O)N1CC[C@H](N)C1 [Compound 193, (S)-(3-aminopyrrolidin-1-yl){5[4-(1-dimethylaminocyclopentyl)phenyl]-3-methylthiophen-2-yl}methanone]
The IC50 of the first is higher: 2000 to 6000 nM for the first, 500 to 1000 nM for the second. The second is the more potent here.

`Cc1cc(-c2ccc3c(c2)OCCC3)sc1C(=O)N1CC[C@H](N)C1` [Compound 194, (S)-(3-aminopyrrolidin-1-yl)(5-(chroman-7-yl)-3-methylthiophen-2-yl)methanone] and `Cc1cc(-c2ccc3c(c2)CCCO3)sc1C(=O)N1CC[C@H](N)C1` [Compound 229] fall in the same range of IC50: 500 to 1000 nM for the first, 500 to 1000 nM for the second.

`Cc1cc(-c2ccc3c(c2)COCC3)sc1C(=O)N1CC[C@H](N)C1` [Compound 195, (S)-(3-aminopyrrolidin-1-yl)[5-(isochroman-7-yl)-3-methylthiophen-2-yl]methanone] and `Cc1cc(-c2ccc3c(c2)NCCC3)sc1C(=O)N1CC[C@H](N)C1` [Compound 197, (S)-(3-aminopyrrolidin-1-yl)(3-methyl-5-(1,2,3,4-tetrahydroquinolin-7-yl)thiophen-2-yl)methanone] fall in the same range of IC50: 1000 to 2000 nM for the first, 1000 to 2000 nM for the second.

Compared with `Cc1cc(-c2ccc3c(c2)N(C)CCC3)sc1C(=O)N1CC[C@H](N)C1` [Compound 196, (S)-(3-aminopyrrolidin-1-yl)(3-methyl-5-(1-methyl-1,2,3,4-tetrahydroquinolin-7-yl)thiophen-2-yl)methanone], `Cc1cc(-c2ccc(Cl)c(Cl)c2)sc1C(=O)N1CC[C@H](N)C1` [Compound 244] is lower in IC50: 6000 to 10000 nM for the first, 2000 to 6000 nM for the second.

Compared with `Cc1cc(-c2ccc(COC3CCOCC3)cc2)sc1C(=O)N1CC[C@H](N)C1` [Compound 202, (S)-(3-aminopyrrolidin-1-yl)(3-methyl-5-(4-((tetrahydro-2H-pyran-4-yloxy)methyl)phenyl)thiophen-2-yl)methanone], `Cc1cc(-c2ccc(COC3CCCCC3)cc2)sc1C(=O)N1CC[C@H](N)C1` [Compound 203, (S)-(3-aminopyrrolidin-1-yl){5-[4-(cyclohexyloxymethyl)phenyl]-3-methylthiophen-2-yl}methanone] is higher in IC50: 1000 to 2000 nM for the first, 2000 to 6000 nM for the second.

First: Cc1cc(-c2ccc(COc3ccccc3)cc2)sc1C(=O)N1CC[C@H](N)C1 [Compound 204, (S)-(3-aminopyrrolidin-1-yl){3-methyl-5-[4-(phenoxymethyl)phenyl]thiophen-2-yl}methanone]
Second: Cc1cc(-c2ccc(-c3ccccc3)cc2)sc1C(=O)N1CC[C@H](N)C1 [Compound 234]
The IC50 of the first is higher: 6000 to 10000 nM for the first, 2000 to 6000 nM for the second. The second is the more potent here.

`Cc1cc(-c2ccc(C3CCNCC3)cc2)sc1C(=O)N1CC[C@H](N)C1` [Compound 205, (S)-(3-aminopyrrolidin-1-yl){3-methyl-5-[4-(piperidin-4-yl)phenyl]thiophen-2-yl}methanone] and `Cc1cc(-c2ccc(C3CCC3)cc2)sc1C(=O)N1CC[C@H](N)C1` [Compound 232] fall in the same range of IC50: 500 to 1000 nM for the first, 500 to 1000 nM for the second.

First: CNCc1ccc(-c2cc(C)c(C(=O)N3CC[C@H](N)C3)s2)cc1 [Compound 218]
Second: CCc1ccc(-c2cc(C)c(C(=O)N3CC[C@H](N)C3)s2)cc1 [Compound 228]
The IC50 of the first is lower: less than 500 nM for the first, 500 to 1000 nM for the second.

Compared with `Cc1cc(-c2ccc(CN)cc2)sc1C(=O)N1CC[C@H](N)C1` [Compound 219], `CCCc1ccc(-c2cc(C)c(C(=O)N3CC[C@H](N)C3)s2)cc1` [Compound 227] is higher in IC50: less than 500 nM for the first, 2000 to 6000 nM for the second. The first is the more potent here.

First: CCc1ccc(-c2cc(C)c(C(=O)N3CC[C@H](N)C3)s2)cc1C [Compound 220]
Second: Cc1cc(-c2ccc(C(C)C)cc2)sc1C(=O)N1CC[C@H](N)C1 [Compound 230]
The IC50 of the first is higher: 6000 to 10000 nM for the first, 2000 to 6000 nM for the second. The second is the more potent here.

Compared with `Cc1cnc(-c2cc(C)c(C(=O)N3CC[C@H](N)C3)s2)cn1` [Compound 223], `Cc1cc(-c2cc(Cl)cc(Cl)c2)sc1C(=O)N1CC[C@H](N)C1` [Compound 245] is higher in IC50: 1000 to 2000 nM for the first, 6000 to 10000 nM for the second.

First: Cc1cc(-c2ccc(C3=CCCCC3)cc2)sc1C(=O)N1CC[C@H](N)C1 [Compound 224]
Second: Cc1cc(-c2ccc(C3=CCOCC3)cc2)sc1C(=O)N1CC[C@H](N)C1 [Compound 236]
The IC50 of the first is higher: 6000 to 10000 nM for the first, less than 500 nM for the second. The second is the more potent here.

First: CCc1ccc(-c2sc(C(=O)N3CC[C@H](N)C3)c(C)c2C)cc1 [Compound 233]
Second: Cc1cc(-c2ccc(C3COC3)cc2)sc1C(=O)N1CC[C@H](N)C1 [Compound 235]
The IC50 of the first is higher: 6000 to 10000 nM for the first, less than 500 nM for the second.

`Cc1cc(-c2ccc(C3CCCCC3)cc2)sc1C(=O)N1CC[C@H](N)C1` [Compound 238] and `Cc1cc(-c2ccc(C3CCCC3)cc2)sc1C(=O)N1CC[C@H](N)C1` [Compound 241] fall in the same range of IC50: 6000 to 10000 nM for the first, 6000 to 10000 nM for the second.

First: Cc1cc(-c2ccc(N3CCOCC3)cc2)sc1C(=O)N1CC[C@H](N)C1 [Compound 239]
Second: Cc1cc(-c2ccc(C3CCOCC3)cc2)sc1C(=O)N1CC[C@H](N)C1 [Compound 243]
The IC50 of the first is higher: 500 to 1000 nM for the first, less than 500 nM for the second.

First: Cc1cc(-c2ccc(-c3cn[nH]c3)cc2)sc1C(=O)N1CC[C@H](N)C1 [Compound 242]
Second: Cc1cc(-c2ccc3ccccc3c2)sc1C(=O)N1CC[C@H](N)C1 [Compound 246]
The IC50 of the first is lower: less than 500 nM for the first, 6000 to 10000 nM for the second. The first is the more potent here.

Compared with `COCCN1CCC(c2ccc(-c3cc(C)c(C(=O)N4CC[C@H](N)C4)s3)cc2Cl)CC1` [Compound 248, (S)-(3-aminopyrrolidin-1-yl)(5-(3-chloro-4-(1-(2-methoxyethyl)piperidin-4-yl)phenyl)-3-methylthiophen-2-yl)methanone], `COCCN1CCC(c2ccc(-c3cc(Cl)c(C(=O)N4CC[C@H](N)C4)s3)cc2Cl)CC1` [Compound 253, (S)-(3-aminopyrrolidin-1-yl)(3-chloro-5-(3-chloro-4-(1-(2-methoxyethyl)piperidin-4-yl)phenyl)thiophen-2-yl)methanone] is lower in IC50: 500 to 1000 nM for the first, less than 500 nM for the second. The second is the more potent here.

`COC(C)(C)CN1CCC(c2ccc(-c3cc(Cl)c(C(=O)N4CC[C@H](N)C4)s3)cc2F)CC1` [Compound 249, (S)-(3-aminopyrrolidin-1-yl)(3-chloro-5-(3-fluoro-4-(1-(2-methoxy-2-methylpropyl)piperidin-4-yl)phenyl)thiophen-2-yl)methanone] and `COC(C)(C)CN1CCC(c2ccc(-c3cc(C)c(C(=O)N4CC[C@H](N)C4)s3)cc2F)CC1` [Compound 254, (S)-(3-aminopyrrolidin-1-yl)(5-(3-fluoro-4-(1-(2-methoxy-2-methylpropyl)piperidin-4-yl)phenyl)-3-methylthiophen-2-yl)methanone] cannot be ordered by IC50: less than 500 nM for the first, less than 500 nM for the second.

`COC(C)CN1CCC(c2ccc(-c3cc(Cl)c(C(=O)N4CC[C@H](N)C4)s3)cc2F)CC1` (stereo partly drawn) [Compound 250, ((S)-3-aminopyrrolidin-1-yl)(3-chloro-5-(3-fluoro-4-(1-(2-methoxypropyl)piperidin-4-yl)phenyl)thiophen-2-yl)methanone] and `COC(C)CN1CCC(c2ccc(-c3cc(C)c(C(=O)N4CC[C@H](N)C4)s3)cc2F)CC1` (stereo partly drawn) [Compound 251, ((S)-3-aminopyrrolidin-1-yl)(5-(3-fluoro-4-(1-(2-methoxypropyl)piperidin-4-yl)phenyl)-3-methylthiophen-2-yl)methanone] cannot be ordered by IC50: less than 500 nM for the first, less than 500 nM for the second.

Compared with `N[C@H]1CCN(C(=O)c2sc(-c3ccc(C4CCN(C5CCOCC5)CC4)c(Cl)c3)cc2OC(F)(F)F)C1` [Compound 252, (S)-(3-aminopyrrolidin-1-yl)(5-(3-chloro-4-(1-(tetrahydro-2H-pyran-4-yl)piperidin-4-yl)phenyl)-3-(trifluoromethoxy)thiophen-2-yl)methanone], `N[C@H]1CCN(C(=O)c2sc(-c3ccc(C4CCN(C5CCOCC5)CC4)cc3)cc2Br)C1` [Compound 255, (S)-(3-aminopyrrolidin-1-yl)(3-bromo-5-(4-(1-(tetrahydro-2H-pyran-4-yl)piperidin-4-yl)phenyl)thiophen-2-yl)methanone] is lower in IC50: 6000 to 10000 nM for the first, less than 500 nM for the second.
